Source: US7629356B2, “Substituted pyrrolo[3,4-b]pyridinamines and pharmaceutical compositions” (AstraZeneca AB, priority 2007, dated 2009)

target: T1, human β-Secretase (soluble part AA1-AA460, sBACE-Fc) (Homo sapiens, UniProt P56817); assay: TR-FRET assay; type: biochemical; conditions: substrate (Europium)CEVNLDAEFK(Qsy7) 100 nM, pH 4.5, 15 min at RT
T1 construct: The soluble part of the human β-Secretase (AA1 -AA460) was cloned; Fc domain of IgG1; made in house
Description: The enzyme used in the IGEN Cleavage-, Fluorescent-, TR-FRET- and BiaCore assays is described as follows:
The soluble part of the human β-Secretase (AA1 -AA460) was cloned into the ASP2-Fc10-1-IRES-GFP-neoK mammalian expression vector. The gene was fused to the Fc domain of IgG1 (affinity tag) and stably cloned into HEK 293 cells. Purified sBACE-Fc is stored in Tris buffer, pH 9.2 and has a purity of 95%.
Enzyme was diluted to 6 μg/mL and the substrate (Europium)CEVNLDAEFK(Qsy7) to 200 nM in reaction buffer (NaAcetate, chaps, triton x-100, EDTA pH 4.5). Compounds were diluted to the desired concentration in dimethyl sulfoxide (final dimethyl sulfoxide concentration in assay is 5%). The assay was done in a Costar 384 well round bottom, low volume, non-binding surface plate (Corning #3676). Enzyme (9 μL) and 1 μL of compound in dimethyl sulfoxide was added to the plate, mixed and pre-incubated for 10 min. Substrate (10 μL) was added and the reaction proceeded in the dark for 15 min at RT. The reaction was stopped with the addition of 7 μL NaAcetate, pH 9. The fluorescence of the product was measured on a Victor II plate reader with an excitation wavelength of 340 nm and an emission wavelength of 615 nm. The final concentration of the enzyme was 2.7 μg/ml and the final concentration of the substrate was 100 nM (Km of 290 nM). The dimethyl sulfoxide control defined the 100% activity level and 0% activity was defined by exclusion of the enzyme (using reaction buffer instead).

T1 sequence (P56817 22-460): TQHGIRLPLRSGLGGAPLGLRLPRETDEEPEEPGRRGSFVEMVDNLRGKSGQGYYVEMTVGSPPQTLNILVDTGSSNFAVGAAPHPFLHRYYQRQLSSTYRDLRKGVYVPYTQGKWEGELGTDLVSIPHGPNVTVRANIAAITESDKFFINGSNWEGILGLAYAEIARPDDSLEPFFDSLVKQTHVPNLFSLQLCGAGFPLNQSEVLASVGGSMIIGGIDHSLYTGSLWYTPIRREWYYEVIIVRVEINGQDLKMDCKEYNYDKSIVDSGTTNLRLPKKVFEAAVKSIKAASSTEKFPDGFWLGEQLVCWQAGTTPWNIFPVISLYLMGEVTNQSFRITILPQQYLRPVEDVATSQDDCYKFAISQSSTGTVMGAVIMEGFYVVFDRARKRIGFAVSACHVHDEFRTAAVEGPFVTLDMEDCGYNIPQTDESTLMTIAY

Row | Ki | SMILES
1 | 282 nM | COc1ccc(C2(c3cccc(-c4cncnc4)c3)N=C(N)c3ncccc32)cc1 (stereo not drawn) [Example 5, 5-(4-Methoxyphenyl)-5-(3-pyrimidin-5-ylphenyl)-5H-pyrrolo[3,4-b]pyridin-7-amine]
2 | 275 nM | COc1ccc(C2(c3cccc(-c4cccnc4F)c3)N=C(N)c3ncccc32)cc1 (stereo not drawn) [Example 6, 5-[3-(2-Fluoropyridin-3-yl)phenyl]-5-(4-methoxyphenyl)-5H-pyrrolo[3,4-b]pyridin-7-amine]
3 | 178 nM | COc1ccc(C2(c3cccc(-c4cncc(OC)c4)c3)N=C(N)c3ncccc32)cc1 (stereo not drawn) [Example 7, 5-(4-Methoxyphenyl)-5-[3-(5-methoxypyridin-3-yl)phenyl]-5H-pyrrolo[3,4-b]pyridin-7-amine]
4 | 339 nM | COc1ccc(C2(c3cccc(-c4cccnc4)c3)N=C(N)c3ncccc32)cc1 (stereo not drawn) [Example 8, 5-(4-Methoxyphenyl)-5-(3-pyridin-3-ylphenyl)-5H-pyrrolo[3,4-b]pyridin-7-amine]
5 | 295 nM | NC1=NC(c2ccncc2)(c2cccc(-c3cccnc3F)c2)c2cccnc21 (stereo not drawn) [Example 9, 5-[3-(2-Fluoropyridin-3-yl)phenyl]-5-pyridin-4-yl-5H-pyrrolo[3,4-b]pyridin-7-amine]
6 | 324 nM | NC1=NC(c2ccncc2)(c2cccc(-c3cncnc3)c2)c2cccnc21 (stereo not drawn) [Example 10, 5-Pyridin-4-yl-5-(3-pyrimidin-5-ylphenyl)-5H-pyrrolo[3,4-b]pyridin-7-amine]
7 | 219 nM | COc1ccc(F)c(-c2cccc(C3(c4ccncc4)N=C(N)c4ncccc43)c2)c1 (stereo not drawn) [Example 11, 5-(2′-Fluoro-5-methoxybiphenyl-3-yl)-5-pyridin-4-yl-5H-pyrrolo[3,4-b]pyridin-7-amine 0.25 acetate]
8 | 91 nM | NC1=NC(c2ccncc2)(c2cccc(-c3cncnc3)c2)c2cnccc21 (stereo not drawn) [Example 16, 3-Pyridin-4-yl-3-(3-pyrimidin-5-ylphenyl)-3H-pyrrolo[3,4-c]pyridin-1-amine]
9 | 62 nM | NC1=NC(c2ccncc2)(c2cccc(-c3cccnc3F)c2)c2cnccc21 (stereo not drawn) [Example 17, 3-[3-(2-Fluoropyridin-3-yl)phenyl]-3-pyridin-4-yl-3H-pyrrolo[3,4-c]pyridin-1-amine]
10 | 93 nM | NC1=NC(c2ccncc2)(c2cccc(-c3cccnc3F)c2)c2ncccc21 (stereo not drawn) [Example 21, 7-[3-(2-Fluoropyridin-3-yl)phenyl]-7-pyridin-4-yl-7H-pyrrolo[3,4-b]pyridin-5-amine]
11 | 170 nM | NC1=NC(c2ccncc2)(c2cccc(-c3cncnc3)c2)c2ncccc21 (stereo not drawn) [Example 22, 7-Pyridin-4-yl-7-(3-pyrimidin-5-ylphenyl)-7H-pyrrolo[3,4-b]pyridin-5-amine]

Row | SMILES | Ki
12 | COc1cccc(-c2cccc(C3(c4ccncc4)N=C(N)c4ncccc43)c2)c1F (stereo not drawn) [Example 12, 5-(2′-Fluoro-3′-methoxybiphenyl-3-yl)-5-pyridin-4-yl-5H-pyrrolo[3,4-b]pyridin-7-amine 0.5 acetate] | 398 nM
